Where a SMILES comes first, the peptide text is derived from it.

The record followed here is the OPERA property sets (Mansouri et al. 2018).

`O=C(Nc1ncc([N+](=O)[O-])s1)c1ccc(Cl)c(Cl)c1` displayed a logP of 4.14.
The compound `CCOC(=O)OC(C)C1=CCSC2C(NC(=O)C(=NOC)c3csc(N)n3)C(=O)N12` (stereo not drawn) showed a logP of 0.96.
`Cc1cc2c(nc1N)[nH]c1ccccc12` came in with a logP of 2.9.
In turn, `CCCC(=NOCC)C1=C(O)CC2(CCCCC2C)OC1=O` (stereo not drawn) had a logP of 3.9.
Take `Nc1nnnn1-c1ccccc1Cl`: the logP is 0.87.
With `O=C(NC1CCCCC1)NS(=O)(=O)c1cnccc1NC1CCCCCC1`, the logP is 4.59.
`Cc1ccc2c(c1)COP(=O)(OCC1C=CC(n3cc(C)c(=O)[nH]c3=O)O1)O2` (stereo not drawn) yielded a logP of 0.73.
The compound `Clc1cc(Cl)c2c(oc3cccc(Cl)c32)c1Cl` displayed a logP of 5.89.
`Cc1oc2ccc3ccc(=O)oc3c2c1C` showed a logP of 2.97.
Turning to `Clc1ccc(-c2noc(N3CCOCC3)n2)cc1`, the logP turned out to be 3.1.
`CN1CC(O)N(C(=O)NC2CCCC2)C1=O` (stereo not drawn) displayed a logP of 1.47.
The compound `O=c1ccc2ccc3occc3c2s1` displayed a logP of 2.58.
The figure for `Cc1ccc(CO)c(C=NNC(=O)c2ccccc2)c1O` is 3.01; for `O=c1cc(-c2ccc(Cl)cc2Cl)oc2ccccc12` it is 4.13; for `CCCCCCNc1[nH]cnc2ncnc1-2` it is 3.16.
In turn, `CCCCCCNC1=NS(=O)N=C1NCCSCc1ccc(CN(C)C)o1` (stereo not drawn) displayed a logP of 3.46.
The figure for `CC(=NNC(=S)N(C)C)c1cc(C)ccc1O` is 2.26; for `C[N+](C)([O-])CCC(c1ccccc1)c1ccccc1` it is 1.1.
Consider `Clc1cc(Cl)c2c(c1)Oc1cc(Cl)c(Cl)c(Cl)c1O2`, for which the logP was found to be 6.4.
`O=C1C=C(N2CCCCC2)CN1c1ccc(Cl)cc1` returned a logP of 3.
The compound `OCCCCCCNc1ncnc2c1ncn2C1OC(CO)C(O)C1O` (stereo not drawn) had a logP of 0.23.
`Cc1cccc(CNc2[nH]cnc3ncnc2-3)c1` displayed a logP of 2.62.
The figure for `CCCCCOCCCNc1ncnc2c1ncn2C1OC(CO)C(O)C1O` (stereo not drawn) is 1.82; for `CNC(C)Cc1ccc2c(c1)OCO2` (stereo not drawn) it is 2.15.
The figure for `Brc1cc(Br)c2ccc3cccc4ccc1c2c43` is 6.85; for `COc1cc2c(cc1OC)C(C=Cc1ccccc1)=NCC2` it is 3.39; for `CC(NC(=O)C(C)NC(=O)C(N)C(C)C)C(=O)NC(Cc1ccccc1)C(=O)O` (stereo not drawn) (H-VAAF-OH; configuration not given here) it is -1.91.
Compound `Cc1ccc(C)c(-n2nnnc2N)c1` had a logP of 1.45.
Turning to `CCCSCc1cc(=O)c(O)co1`, the logP turned out to be 1.32.
With `CCC(C)C(NC(=O)C(C)NC(=O)C(CC(C)C)NC(=O)C(N)CO)C(=O)NC(C(=O)O)C(C)C` (stereo not drawn) (H-SLAIV-OH; configuration not given here), the logP was -1.94.
Regarding `CC(C)CC(NC(=O)C(N)Cc1ccc(O)cc1)C(=O)O` (stereo not drawn) (H-Tyr-Leu-OH; configuration not given here), the logP was -1.75.
Compound `CC(C)NCC(O)COc1ccc(-c2ncc[nH]2)cc1` (stereo not drawn) yielded a logP of 1.4.
The figure for `CCCN(CCCC(NC(C)=O)C(=O)NCc1ccccc1)C(=O)N(CCCl)N=O` (stereo not drawn) is 1.57; for `NC1=NCC(COc2ccc(-c3ccccc3)cc2)O1` (stereo not drawn) it is 2.8.
`CCNc1ncnc2c1ncn2C1OC(CO)C(O)C1O` (stereo not drawn) had a logP of 0.01.
Consider `CC(C)c1cc(=S)ss1`, for which the logP came out at 2.75.
The figure for `CCCCCOCCCNc1[nH]cnc2ncnc1-2` is 2.74.
In turn, `CNC=C1c2cccc(O)c2C(=O)c2c(O)cccc21` displayed a logP of 3.55.
As to `CC(C)CC(NC(=O)C(N)Cc1c[nH]c2ccccc12)C(=O)NC(CC(C)C)C(=O)NC(C(=O)O)C(C)C` (stereo not drawn) (H-WLLV-OH; configuration not given here), the logP worked out at 0.23.
The figure for `NC(=O)C1CN(CC(=O)Nc2c(Cl)cccc2Cl)CCN1CCCC(c1ccc(F)cc1)c1ccc(F)cc1` (stereo not drawn) is 5.26; for `Cc1ccc(-n2nnnc2N)cc1Cl` it is 1.89; for `Cc1oc2cc3oc(=O)ccc3c(C)c2c1C` it is 3.27.
On to `O=C(C=Cc1ccc([N+](=O)[O-])o1)NN=Cc1ccc([N+](=O)[O-])o1`, for which the logP was 2.79.
`Cc1ccc(OCC2CN=C(N)O2)c(C)c1` (stereo not drawn): the logP is 2.23.
`CCCCNC(=O)N1C(=O)N(C)CC1O` (stereo not drawn): the logP was 1.38.
`CCN1CCCC1CNC(=O)c1c(OC)ccc(OC)c1O` (stereo not drawn): the logP was 2.82.
In turn, `O=S(NC(=S)N1CCCCC1)c1cnccc1NC1CCCCC1` (stereo not drawn) came in with a logP of 3.75.
`COc1cc2c(c(OC)c1OC)-c1ccc(O)c(=O)cc1C(N)CC2` (stereo not drawn) had a logP of 0.74.
`O=C(NC1CCCCCCC1)NS(=O)(=O)c1cnccc1NC1CCCCC1` gave a logP of 4.97.
In turn, `O=C(Nc1ccccc1C(=O)O)c1ccccc1O` registered a logP of 3.94.
Consider `CCCCCCC(Nc1ccc([N+](=O)[O-])cc1[N+](=O)[O-])C(=O)O` (stereo not drawn), for which the logP amounted to 4.2.
On to `Cc1cc(=O)oc2c1c(C)cc1occ(C)c12`, for which the logP was found to be 3.04.
The figure for `OC(CCNC1CCCCC1)COc1cccc2ccccc12` (stereo not drawn) is 3.99; for `CC(C)CC(N)C(=O)NC(CC(C)C)C(=O)NCC(=O)NC(Cc1ccccc1)C(=O)O` (stereo not drawn) (H-LLGF-OH; configuration not given here) it is -0.42.
Compound `CCCCCCOc1ccc(CC(=O)O)cc1OC` displayed a logP of 3.3.
The compound `CC1CCC2OC2(C)C12CCC(C(C)(C)O)C2` (stereo not drawn) displayed a log partition coefficient (logP) of 2.7.
As to `CCC1OC(Cn2cncn2)(c2ccc(Cl)cc2Cl)OC1C` (stereo not drawn), the logP was found to be 3.41.
The figure for `CC(=O)C(=Cc1cc(O)c(O)c([N+](=O)[O-])c1)C(C)=O` is 1.21; for `Cc1cc2c(o1)c(C)c(C)c1ccc(=O)oc12` it is 3.26; for `S=C=NCCCCCCCCCCc1ccccc1` it is 6.82.
`CN1C(C(=O)Nc2ccccn2)=C(O)c2sc(Cl)cc2S1(=O)=O` had a logP of 2.62.
`CC(C)(C)[N+]([O-])=Cc1ccncc1` gave a logP of 0.4.
The figure for `CC(N)C(=O)NC(Cc1c[nH]c2ccccc12)C(=O)O` (stereo not drawn) is -2.21; for `Cc1c(C)c2cc(C)c3occc3c2oc1=O` it is 3.23.
`Cc1cc2c(ccc3c(C)c(C)c(=O)n(C)c32)o1` registered a logP of 3.54.
In turn, `O=C1N=C(N2CCOCC2)CN1Cc1ccccc1Cl` had a logP of 1.
In turn, `OCC1OC(n2cnc3c(NCCCc4ccccc4)ncnc32)C(O)C1O` (stereo not drawn) had a logP of 1.92.
The compound `CC(=O)NC1=C(Cl)C(=O)c2ccccc2C1=O` gave a logP of 1.42.
The figure for `CCC1C(=O)N(CCN(C)C)c2cccc(C(F)(F)F)c2CC1c1ccc(OC)cc1` (stereo not drawn) is 6.3; for `CN(c1ccc2cc3ccc4c(c3nc2c1)COCN4)S(C)(=O)=O` it is 1.54; for `COC(=O)c1c(N2CCOCC2)c(-c2ccc(Cl)cc2)cn1C(=O)N1CCOCC1` it is 3.1.
The figure for `NC1=NC(C2OCCc3ccccc32)CS1` (stereo not drawn) is 1.79; for `Cc1nc2c3c(c(C(=O)N4CCCC4)cn2c1C)CCC(c1ccccc1)O3` (stereo not drawn) it is 3.6.
As to `CC(O)CN(C)C` (stereo not drawn), the logP amounted to 0.2.
As for `COc1ccc(C2Cc3ccccc3N(CCN(C)C)C(=O)C2C)cc1` (stereo not drawn), the logP was 4.5.
For `COc1cc(OS(C)(=O)=O)ccc1-c1cn2cccnc2n1`, the logP turned out to be 1.05.
The figure for `CC(C)NCC(O)c1ccc([N+](=O)[O-])cc1` (stereo not drawn) is 1.28; for `CC(C)(O)C1CCC2(C)CCCC(O)C2C1` (stereo not drawn) it is 2.68; for `CC(C)(C)NCC(O)CON=C(C1CC1)C1CC1` (stereo not drawn) it is 1.84.
For `COc1cccc(-n2nnnc2N)c1`, the logP was found to be 0.96.
The figure for `COc1cc2ncnc(Nc3cc(F)cc(C(F)(F)F)c3)c2cc1OC` is 4.66; for `Cc1ccc(-n2c(Cc3c(C)[nH]c4ccccc34)n[nH]c2=S)cc1` it is 3; for `CSc1ccc2nc(-c3ccc(N)cc3)cn2c1` it is 2.9.
The compound `C=C1CCCC2(C)CCC(C(C)(C)O)CC12` (stereo not drawn) gave a logP of 4.64.
`Cc1cc2c(ccc3c(C)cc(=O)oc32)o1` yielded a logP of 3.08.
Regarding `Clc1cc(-c2ccc(Cl)c(Cl)c2Cl)cc(Cl)c1Cl`, the logP amounted to 7.6.
With `CC1CC2C3CCC4=CC(=O)C=CC4(C)C3(F)C(O)CC2(C)C1(O)C(=O)COC(=O)CC1CCCCC1` (stereo not drawn), the logP was determined as 4.95.
The figure for `CSc1cnc(C2=NC(C)(C(C)C)C(=O)N2)c(C(=O)O)c1` (stereo not drawn) is 0.75; for `O=C1CCCc2nnc(-c3ccccc3)cc21` it is 2.05; for `CCOc1ccccc1NC(=O)OCCN1CCCCC1` it is 3.59.
With `CC(C)CC(NC(=O)C(CC(C)C)NC(=O)C(C)NC(=O)C(C)NC(=O)CN)C(=O)O` (stereo not drawn) (H-GAALL-OH; configuration not given here), the logP was -2.55.
`CC(C)CC(NC(=O)C(N)Cc1c[nH]c2ccccc12)C(=O)O` (stereo not drawn): the logP is -0.73.
Regarding `CC(=O)OC(C)(C)C1CCC2(C)CCCC(=O)C2C1` (stereo not drawn), the logP worked out at 3.2.
Turning to `COC(=O)C(C)=CC1C(C(=O)OCc2cccc(Cc3ccccc3)c2)C1(C)C` (stereo not drawn), the logP came out at 6.41.
For the compound `Cc1cccc2c1C(=O)N(CCO[N+](=O)[O-])CO2`, the logP was found to be 2.54.
The figure for `Nc1nc(N)c2c(Cl)cccc2n1` is 1.72; for `CCCCNC1CC(OC2CC(O)(C(=O)CO)Cc3c(O)c4c(c(O)c32)C(=O)c2c(OC)cccc2C4=O)OC(C)C1O` (stereo not drawn) it is 2.12.
In turn, `CCOC(=O)c1c(O)c2ccc(Cl)cc2[nH]c1=O` displayed a logP of 2.6.
In turn, `Brc1cc(Br)c(N=C2NCCN2)c(Br)c1` displayed a logP of 2.54.
The compound `CCCCCI` registered a logP of 3.62.
The figure for `COc1cccc(NC(=O)OCCN2CCCCC2)c1` is 3.32; for `CCCCCC(O)C=CC1C(O)CC(O)C1CC=CCCCC(=O)OCc1ccccc1` (stereo not drawn) it is 4.11.
Compound `COc1cc(Cl)cc(Cl)c1O` showed a logP of 2.86.
The figure for `CCCCN(CCO)CCCC` is 2.65; for `CCNc1nc(O)nc(NCC)n1` it is 2.29.
In turn, `CC12CC(Cl)(Cl)C(CC1(Cl)Cl)C2(CCl)C(Cl)Cl` (stereo not drawn) returned a logP of 5.49.
Turning to `CCNc1ccc(NC(=O)N(C)OC)cc1`, the logP was found to be 0.83.
The figure for `CC(C)CC(NC(=O)C(NC(=O)C(CO)NC(=O)C(CC(C)C)NC(=O)CN)C(C)C)C(=O)O` (stereo not drawn) (H-GLSVL-OH; configuration not given here) is -1.64.

As usually defined, the logP is the decadic logarithm of the partition coefficient of the neutral form, usually between octanol and water.
